Assay results as given in patent US20230053540A1, “TREATMENT OF LIVER INJURY” (Massachusetts Institute of Technology, priority 2019, published 2023).

Tested on: hepatocytes
Assay: Seq-Well scRNA-Seq of hepatocytes after APAP overdose (signature scores, DEG vs untreated)
Format: in vivo, mouse
[1] = hepatocyte cluster A96 (APAP, 96 h) vs all other clusters
[2] = hepatocytes, cluster A24 (APAP) vs other treatment clusters
[3] = hepatocytes, cluster A48 (APAP) vs other treatment clusters

CC(=O)Nc1ccc(O)cc1 [APAP, acetaminophen]
avg_logFC Fmo1 [1]: 0.2535 | avg_logFC Gclm [1]: 0.269 | avg_logFC Hamp2 [1]: 0.2597 | avg_logFC Hsd17b7 [1]: 0.3023 | avg_logFC Lcat [1]: 0.2519 | avg_logFC Mocs2 [1]: 0.2666 | avg_logFC Mtdh [1]: 0.2838 | avg_logFC Ndufa3 [1]: 0.2765 | avg_logFC Ndufb2 [1]: 0.3005 | avg_logFC Nfe2l2 [1]: 0.2513 | avg_logFC Oat [1]: 0.3213 | avg_logFC Pabpc1 [1]: 0.2527 | avg_logFC Pdk1 [1]: 0.2558 | avg_logFC Prkd3 [1]: 0.2593 | avg_logFC Ptp4a2 [1]: 0.2634 | avg_logFC Rgn [1]: 0.291 | avg_logFC Sdhc [1]: 0.2722 | avg_logFC Sdhd [1]: 0.261 | avg_logFC Slc4a4 [1]: 0.2916 | avg_logFC Slc25a10 [1]: 0.2605 | avg_logFC Tgoln1 [1]: 0.2968 | avg_logFC Tmed5 [1]: 0.2563 | avg_logFC Tmem106b [1]: 0.2604 | avg_logFC Tob1 [1]: 0.301 | avg_logFC Tsc22d3 [1]: 0.3181 | avg_logFC Usmg5 [1]: 0.2565 | avg_logFC Zfp91 [1]: 0.3255 | AA474408 avg_logFC [2]: 0.4148 | Abca1 avg_logFC [2]: 0.3831 | Acox1 avg_logFC [2]: 0.2743 | Acsl4 avg_logFC [2]: 0.299 | Adh4 avg_logFC [2]: 0.392 | Ak3 avg_logFC [2]: 0.2504 | Aox3 avg_logFC [2]: 0.3489 | Arcn1 avg_logFC [2]: 0.3044 | Atp8b1 avg_logFC [2]: 0.361 | Atp11c avg_logFC [2]: 0.2568 | Atxn1 avg_logFC [2]: 0.325 | Calm1 avg_logFC [2]: 0.3702 | Calu avg_logFC [2]: 0.3005 | Canx avg_logFC [2]: 0.2771 | Cltc avg_logFC [2]: 0.3397 | Cmah avg_logFC [2]: 0.4243 | Copa avg_logFC [2]: 0.3334 | Cps1 avg_logFC [2]: 0.2775 | Ctnnb1 avg_logFC [2]: 0.329 | Cyb5r3 avg_logFC [2]: 0.3097 | Ddost avg_logFC [2]: 0.2909 | Dhcr24 avg_logFC [2]: 0.2824 | Dnajb11 avg_logFC [2]: 0.3288 | Dnajc12 avg_logFC [2]: 0.324 | Echdc1 avg_logFC [2]: 0.2818 | Edem1 avg_logFC [2]: 0.2675 | Efna1 avg_logFC [2]: 0.3161 | Eif4g1 avg_logFC [2]: 0.2763 | Eif4g2 avg_logFC [2]: 0.3515 | Eprs avg_logFC [2]: 0.2513 | Etnk1 avg_logFC [2]: 0.3194 | Fam120a avg_logFC [2]: 0.2583 | Fasn avg_logFC [2]: 0.2699 | Fndc3b avg_logFC [2]: 0.3202 | Fos avg_logFC [2]: 0.3632 | Gjb2 avg_logFC [2]: 0.2998 | Gm5424 avg_logFC [2]: 0.262 | Gm24245 avg_logFC [2]: 0.414 | Grlf1 avg_logFC [2]: 0.2556 | Hnf4a avg_logFC [2]: 0.2549 | Hs3st3b1 avg_logFC [2]: 0.3219 | Hsd3b5 avg_logFC [2]: 0.3009 | Hspa13 avg_logFC [2]: 0.342 | Ibtk avg_logFC [2]: 0.2959 | Il6st avg_logFC [2]: 0.3011 | Il13ra1 avg_logFC [2]: 0.2889 | Insig1 avg_logFC [2]: 0.4125 | Kmo avg_logFC [2]: 0.2687 | Lasp1 avg_logFC [2]: 0.2608 | Lgr4 avg_logFC [2]: 0.2572 | Lpgat1 avg_logFC [2]: 0.2525 | Lrg1 avg_logFC [2]: 0.3096 | Lrp1 avg_logFC [2]: 0.4837 | Lrrc59 avg_logFC [2]: 0.2688 | Met avg_logFC [2]: 0.2512 | Mlec avg_logFC [2]: 0.3405 | Mtss1 avg_logFC [2]: 0.2522 | Mtus1 avg_logFC [2]: 0.3125 | Mug2 avg_logFC [2]: 0.3166 | Nab1 avg_logFC [2]: 0.2601 | Nars avg_logFC [2]: 0.3127 | Nedd4 avg_logFC [2]: 0.3305 | Nr1d2 avg_logFC [2]: 0.3855 | Nr5a2 avg_logFC [2]: 0.2599 | Nrp1 avg_logFC [2]: 0.33 | Ostc avg_logFC [2]: 0.3082 | Prg4 avg_logFC [2]: 0.4007 | Prkd3 avg_logFC [2]: 0.3041 | Proz avg_logFC [2]: 0.28 | Pten avg_logFC [2]: 0.2663 | Ptprf avg_logFC [2]: 0.2888 | Qsox1 avg_logFC [2]: 0.2817 | Rab1 avg_logFC [2]: 0.3145 | Rpn1 avg_logFC [2]: 0.3991 | Rrbp1 avg_logFC [2]: 0.2968 | Sdf2l1 avg_logFC [2]: 0.3078 | Sec31a avg_logFC [2]: 0.2596 | Sec61b avg_logFC [2]: 0.3008 | Sel1l avg_logFC [2]: 0.2833 | Sh3bgrl avg_logFC [2]: 0.2668 | Slc3a1 avg_logFC [2]: 0.3074 | Slc38a10 avg_logFC [2]: 0.2557 | Spcs3 avg_logFC [2]: 0.3907 | Srebf1 avg_logFC [2]: 0.3149 | Srp72 avg_logFC [2]: 0.28 | Srpr avg_logFC [2]: 0.2914 | Ssr1 avg_logFC [2]: 0.3129 | Stard4 avg_logFC [2]: 0.2922 | Stt3b avg_logFC [2]: 0.2648 | Tmed7 avg_logFC [2]: 0.3715 | Tmem30a avg_logFC [2]: 0.3056 | Trip12 avg_logFC [2]: 0.2832 | Txndc5 avg_logFC [2]: 0.2758 | Uggt1 avg_logFC [2]: 0.2805 | Uso1 avg_logFC [2]: 0.3202 | Usp4 avg_logFC [2]: 0.2959 | Usp9x avg_logFC [2]: 0.3387 | Zbtb20 avg_logFC [2]: 0.3135 | Abcb4 avg_logFC [3]: 0.4425 | Abcd2 avg_logFC [3]: 0.2813 | Abhd14b avg_logFC [3]: 0.4059 | Acad11 avg_logFC [3]: 0.3851 | Agt avg_logFC [3]: 0.5795 | Ahcy avg_logFC [3]: 0.34 | Ahsg avg_logFC [3]: 0.3592 | Aldh9a1 avg_logFC [3]: 0.3826 | Aldob avg_logFC [3]: 0.4375 | Ambp avg_logFC [3]: 0.286 | Amy1 avg_logFC [3]: 0.4216 | Angptl3 avg_logFC [3]: 0.6111 | Apoa5 avg_logFC [3]: 0.4483 | Apoc2 avg_logFC [3]: 0.8639 | Apoc3 avg_logFC [3]: 0.407 | Apoe avg_logFC [3]: 0.5049 | Apoh avg_logFC [3]: 0.4628 | Atp5b avg_logFC [3]: 0.3281 | Atp5h avg_logFC [3]: 0.5978 | Bfar avg_logFC [3]: 0.308 | Bnip3 avg_logFC [3]: 0.462 | Cdo1 avg_logFC [3]: 0.3971 | Cebpb avg_logFC [3]: 0.3684 | Ces1b avg_logFC [3]: 0.483 | Ces1c avg_logFC [3]: 0.5488 | Chchd10 avg_logFC [3]: 0.7517 | Cox5a avg_logFC [3]: 0.4197 | Cox8a avg_logFC [3]: 0.552 | Cp avg_logFC [3]: 0.4274 | Cyp4a10 avg_logFC [3]: 0.9326 | Cyp4a14 avg_logFC [3]: 1.281 | Dbp avg_logFC [3]: 0.2896 | Ddb1 avg_logFC [3]: 0.3544 | Decr1 avg_logFC [3]: 0.5669 | Decr2 avg_logFC [3]: 0.4129 | Ech1 avg_logFC [3]: 0.418 | Echs1 avg_logFC [3]: 0.4649 | Ephx2 avg_logFC [3]: 0.3869 | F2 avg_logFC [3]: 0.3952 | F10 avg_logFC [3]: 0.3927 | F12 avg_logFC [3]: 0.388 | Fah avg_logFC [3]: 0.3913 | Fcgrt avg_logFC [3]: 0.4084 | Fkbp5 avg_logFC [3]: 0.2572 | Fth1 avg_logFC [3]: 0.375 | Gabarap avg_logFC [3]: 0.4014 | Gc avg_logFC [3]: 0.2979 | Gltscr2 avg_logFC [3]: 0.3432 | Gm6484 avg_logFC [3]: 0.4108 | Gm23935 avg_logFC [3]: 0.4738 | Grn avg_logFC [3]: 0.431 | Gstt3 avg_logFC [3]: 0.3384 | Gys2 avg_logFC [3]: 0.4231 | Hdac11 avg_logFC [3]: 0.3557 | Herpud1 avg_logFC [3]: 0.6044 | Hmgcl avg_logFC [3]: 0.5501 | Hmgcs2 avg_logFC [3]: 0.7687 | Hpx avg_logFC [3]: 0.3851 | Hrg avg_logFC [3]: 0.5316 | Hsd17b13 avg_logFC [3]: 0.6221 | Hspa8 avg_logFC [3]: 0.4107 | Khk avg_logFC [3]: 0.5202 | Lcat avg_logFC [3]: 0.5054 | Lims2 avg_logFC [3]: 0.3761 | Lpin1 avg_logFC [3]: 0.515 | Mat1a avg_logFC [3]: 0.7753 | Mfsd2a avg_logFC [3]: 0.6614 | Mlycd avg_logFC [3]: 0.4378 | Ndrg2 avg_logFC [3]: 0.3482 | Nr1i3 avg_logFC [3]: 0.4759 | Oaf avg_logFC [3]: 0.5021 | P4hb avg_logFC [3]: 0.2981 | Pabpc1 avg_logFC [3]: 0.4782 | Plin5 avg_logFC [3]: 0.3985 | Pnpla2 avg_logFC [3]: 0.3465 | Prodh2 avg_logFC [3]: 0.5055 | Rbp4 avg_logFC [3]: 0.3942
